According to patent US5395947A, “Platinum(II) complex and processes for preparing the same” (Sunkyong Industries, Ltd., priority 1991, dated 1995):

How the values were obtained:
[1] = tested on: murine leukemia L1210 cells; experiment: Growth inhibition test on cultured murine leukemia L1210 cells; type: cell-based; conditions: 48 hours, 37° C., Trypan blue viability
Method in brief: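 L1210 cells (1×10^5) exposed to graded compound concentrations in RPMI 1640 with 10% fetal calf serum, 37° C, 5% CO2, 48 h. Viability by 0.17% Trypan blue staining, relative to untreated control cells.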

murine leukemia L1210 = experiment: Antitumor activity test on murine leukemia L1210 in vivo; set-up: species or system male BDF1 mice; conditions: days 1, 5, 9
Method in brief: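 Intraperitoneal L1210 model: 1×10^6 cells inoculated i.p. into 6-week-old male BDF1 mice (21±3 g) on day 0, seven per group. Compounds in 0.5% CMC given i.p. on days 1, 5 and 9; vehicle-only controls. T/C % from mean survival time of treated over control.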

[2] = Test for water solubility; type: physicochemical; conditions: water
Excerpt: 3. Test for water solubility
A standard plot of UV absorbance(220 nm) vs. concentration was made; and employed to determine water-solubility.
The mixture was then passed through a 0.45 micron disposable membrane filter before dilution and UV measurement.

ICR mice = experiment: Acute toxicity test; type: in vivo; set-up: Lethality: unit not given here; conditions: for Lethality: 10080 min
Method in brief: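 Male and female 7-week-old ICR mice, 6 per group, dosed intraperitoneally. Signs and survival followed for 7 days, with autopsy of animals that died.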

Structure (SMILES): CCC1OC2C[NH2+][Pt-2]3([NH2+]CC2O1)[O]C(=O)C1(CCC1)C(=O)[O]3 [Example 24, cis-cyclobutane-1,1-dicarboxylato[(4R,5R)-4,5-bis(aminomethyl)-2-ethyl-1,3-dioxolane]platinum(II)]
- IC50 (concentration required for 50% inhibition of growth) [1]: 0.55 µg/mL
- T/C (%) (murine leukemia L1210; 6.2 mg/kg i.p.): 122%
- T/C (%) (murine leukemia L1210; 12.5 mg/kg i.p.): 130%
- T/C (%) (murine leukemia L1210; 25 mg/kg i.p.): 193%
- T/C (%) (murine leukemia L1210; 50 mg/kg i.p.): 208%
- T/C (%) (murine leukemia L1210; 100 mg/kg i.p.): 391%
- Solubility in water [2]: 12000 µg/mL
- Number of dead mice for 7 days (ICR mice; female, 160 mg/kg i.p.): 0/6
- Number of dead mice, 1st day (ICR mice; female, 160 mg/kg i.p.): 0/6
- Number of dead mice for 7 days (ICR mice; female, 208 mg/kg i.p.): 0/6
- Number of dead mice, 1st day (ICR mice; female, 208 mg/kg i.p.): 0/6
- Number of dead mice for 7 days (ICR mice; female, 270 mg/kg i.p.): 3/6
- Number of dead mice, 1st day (ICR mice; female, 270 mg/kg i.p.): 0/6
- Number of dead mice, 2nd day (ICR mice; female, 270 mg/kg i.p.): 1/6
- Number of dead mice, 3rd day (ICR mice; female, 270 mg/kg i.p.): 1/5
- Number of dead mice, 5th day (ICR mice; female, 270 mg/kg i.p.): 1/4
- Lethality (ICR mice; female, 270 mg/kg i.p.): 50.0
- Number of dead mice for 7 days (ICR mice; female, 352 mg/kg i.p.): 5/6
- Number of dead mice, 1st day (ICR mice; female, 352 mg/kg i.p.): 0/6
- Number of dead mice, 3rd day (ICR mice; female, 352 mg/kg i.p.): 3/6
- Number of dead mice, 4th day (ICR mice; female, 352 mg/kg i.p.): 2/3
- Lethality (ICR mice; female, 352 mg/kg i.p.): 83.3
- Number of dead mice for 7 days (ICR mice; female, 457 mg/kg i.p.): 6/6
- Number of dead mice, 1st day (ICR mice; female, 457 mg/kg i.p.): 0/6
- Number of dead mice, 2nd day (ICR mice; female, 457 mg/kg i.p.): 4/6
- Number of dead mice, 3rd day (ICR mice; female, 457 mg/kg i.p.): 2/2
- Lethality (ICR mice; female, 457 mg/kg i.p.): 100.0
- Number of dead mice for 7 days (ICR mice; male, 160 mg/kg i.p.): 0/6
- Number of dead mice, 1st day (ICR mice; male, 160 mg/kg i.p.): 0/6
- Number of dead mice for 7 days (ICR mice; male, 208 mg/kg i.p.): 1/6
- Number of dead mice, 1st day (ICR mice; male, 208 mg/kg i.p.): 0/6
- Number of dead mice, 3rd day (ICR mice; male, 208 mg/kg i.p.): 1/6
- Lethality (ICR mice; male, 208 mg/kg i.p.): 16.7
- Number of dead mice for 7 days (ICR mice; male, 270 mg/kg i.p.): 5/6
- Number of dead mice, 1st day (ICR mice; male, 270 mg/kg i.p.): 0/6
- Number of dead mice, 2nd day (ICR mice; male, 270 mg/kg i.p.): 1/6
- Number of dead mice, 3rd day (ICR mice; male, 270 mg/kg i.p.): 2/5
- Number of dead mice, 4th day (ICR mice; male, 270 mg/kg i.p.): 1/3
- Number of dead mice, 5th day (ICR mice; male, 270 mg/kg i.p.): 1/2
- Lethality (ICR mice; male, 270 mg/kg i.p.): 83.3
- Number of dead mice for 7 days (ICR mice; male, 352 mg/kg i.p.): 6/6
- Number of dead mice, 1st day (ICR mice; male, 352 mg/kg i.p.): 1/6
- Number of dead mice, 2nd day (ICR mice; male, 352 mg/kg i.p.): 2/5
- Number of dead mice, 3rd day (ICR mice; male, 352 mg/kg i.p.): 2/3
- Number of dead mice, 6th day (ICR mice; male, 352 mg/kg i.p.): 1/1
- Lethality (ICR mice; male, 352 mg/kg i.p.): 100.0
- Number of dead mice for 7 days (ICR mice; male, 457 mg/kg i.p.): 6/6
- Number of dead mice, 1st day (ICR mice; male, 457 mg/kg i.p.): 0/6
- Number of dead mice, 2nd day (ICR mice; male, 457 mg/kg i.p.): 2/6
- Number of dead mice, 3rd day (ICR mice; male, 457 mg/kg i.p.): 4/6
- Lethality (ICR mice; male, 457 mg/kg i.p.): 100.0

Structure (SMILES): CC1(C)OC2C[NH2+][Pt-2]3([NH2+]CC2O1)[O]C(=O)C1(CCC1)C(=O)[O]3 [Example 26, cis-cyclobutane-1,1-dicarboxylato[(4R,5R)-4,5-bis(aminomethyl)-2,2-dimethyl-1,3-dioxolane]platinum(II)]
- IC50 (concentration required for 50% inhibition of growth) [1]: 0.65 µg/mL
- T/C (%) (murine leukemia L1210; 6.2 mg/kg i.p.): 124%
- T/C (%) (murine leukemia L1210; 12.5 mg/kg i.p.): 170%
- T/C (%) (murine leukemia L1210; 25 mg/kg i.p.): 217%
- T/C (%) (murine leukemia L1210; 50 mg/kg i.p.): 283%
- T/C (%) (murine leukemia L1210; 100 mg/kg i.p.): 317%
- Solubility in water [2]: 2000 µg/mL
- Number of dead mice for 7 days (ICR mice; female, 160 mg/kg i.p.): 0/6
- Number of dead mice, 1st day (ICR mice; female, 160 mg/kg i.p.): 0/6
- Number of dead mice for 7 days (ICR mice; female, 208 mg/kg i.p.): 0/6
- Number of dead mice, 1st day (ICR mice; female, 208 mg/kg i.p.): 0/6
- Number of dead mice for 7 days (ICR mice; female, 270 mg/kg i.p.): 1/6
- Number of dead mice, 1st day (ICR mice; female, 270 mg/kg i.p.): 0/6
- Number of dead mice, 5th day (ICR mice; female, 270 mg/kg i.p.): 1/6
- Lethality (ICR mice; female, 270 mg/kg i.p.): 16.7
- Number of dead mice for 7 days (ICR mice; female, 352 mg/kg i.p.): 4/6
- Number of dead mice, 1st day (ICR mice; female, 352 mg/kg i.p.): 0/6
- Number of dead mice, 3rd day (ICR mice; female, 352 mg/kg i.p.): 2/6
- Number of dead mice, 4th day (ICR mice; female, 352 mg/kg i.p.): 2/4
- Lethality (ICR mice; female, 352 mg/kg i.p.): 66.7
- Number of dead mice for 7 days (ICR mice; female, 457 mg/kg i.p.): 6/6
- Number of dead mice, 1st day (ICR mice; female, 457 mg/kg i.p.): 0/6
- Number of dead mice, 2nd day (ICR mice; female, 457 mg/kg i.p.): 4/6
- Number of dead mice, 3rd day (ICR mice; female, 457 mg/kg i.p.): 2/2
- Lethality (ICR mice; female, 457 mg/kg i.p.): 100.0
- Number of dead mice for 7 days (ICR mice; male, 160 mg/kg i.p.): 0/6
- Number of dead mice, 1st day (ICR mice; male, 160 mg/kg i.p.): 0/6
- Number of dead mice for 7 days (ICR mice; male, 208 mg/kg i.p.): 1/6
- Number of dead mice, 1st day (ICR mice; male, 208 mg/kg i.p.): 0/6
- Number of dead mice, 3rd day (ICR mice; male, 208 mg/kg i.p.): 1/6
- Lethality (ICR mice; male, 208 mg/kg i.p.): 16.7
- Number of dead mice for 7 days (ICR mice; male, 270 mg/kg i.p.): 2/6
- Number of dead mice, 1st day (ICR mice; male, 270 mg/kg i.p.): 0/6
- Number of dead mice, 4th day (ICR mice; male, 270 mg/kg i.p.): 2/6
- Lethality (ICR mice; male, 270 mg/kg i.p.): 33.3
- Number of dead mice for 7 days (ICR mice; male, 352 mg/kg i.p.): 4/6
- Number of dead mice, 1st day (ICR mice; male, 352 mg/kg i.p.): 0/6
- Number of dead mice, 2nd day (ICR mice; male, 352 mg/kg i.p.): 1/6
- Number of dead mice, 3rd day (ICR mice; male, 352 mg/kg i.p.): 3/5
- Lethality (ICR mice; male, 352 mg/kg i.p.): 66.7
- Number of dead mice for 7 days (ICR mice; male, 457 mg/kg i.p.): 6/6
- Number of dead mice, 1st day (ICR mice; male, 457 mg/kg i.p.): 0/6
- Number of dead mice, 2nd day (ICR mice; male, 457 mg/kg i.p.): 2/6
- Number of dead mice, 3rd day (ICR mice; male, 457 mg/kg i.p.): 4/4
- Lethality (ICR mice; male, 457 mg/kg i.p.): 100.0
